Laboratory results reported in US12569459B2, “Compositions and methods for treating pulmonary edema or lung inflammation” (priority 2020, dated 2026).

Experiments:
in vivo = test: in vivo; parameters: species or system Sprague-Dawley rats; conditions: Sprague-Dawley, rat; for Cmax_D / Vz_F_obs / AUC(0-inf): inhaled or intranasal; for AUC(0-inf): 2.73 ug
Method: Sixty animals (plus two spare animals/sex/group) were anesthetized and dosed via intratracheal instillation of test or control materials for five consecutive days. On the day after the last dose a terminal blood collection was performed for clinical pathology, after which animals were euthanized and a gross examination of all organs was performed by a board-certified veterinary pathologist. Select tissues were collected for histopathology. […] Terminal blood collection was performed at two designated time points per animal up to 24 hours after administration for toxicokinetic evaluation. TK animals were euthanized without further evaluation after the final blood collection. All animals were acclimated for a minimum of seven days prior to the dosing procedure. Animals underwent baseline observations and examinations prior to the initiation of the study, and clinical observations and body weight monitoring were performed throughout the in-life portion of the study. All animals received the same dose volume (0.3 mL) of either test or control materials. This maximum feasible dose (MFD) is constrained by the maximum volume that can be safely and reproducibly (over five days) instilled into lungs of rats weighing 250 g to 350 g, which was determined in preliminary toxicology studies to be 0.3 mL. Actual doses delivered are reported as both μg/kg body weight and μg/gm wet lung weight. The toxicity phase animals were 72-135 days of age at the time of initial dosing. Males weighed between 256.52 g and 307.50 g with a mean±standard deviation of 286.74±11.77 g, and females weighed between 250.46 g and 299.01 g with a mean±standard deviation of 260.64±10.34 g. The TK phase animals were 68-144 days of age at the time of initial dosing. Males weighed between 261.23 g and 316.19 g; females weighed between 250.06 g and 280.32 g.
For toxicokinetic experiments, rats were anesthetized with combination of ketamine 40 mg/kg to 200 mg/kg and xylazine 1 mg/kg to 7 mg/kg, intraperitoneally (IP), to effect for dosing procedures, and dosed intratracheally with liothyronine sodium injection as previously described. Depending on the duration of time between dosing and the first or second blood collection time points, animals either had blood collected while still anesthetized under the injectable anesthetics, or if recovered, they were anesthetized with Isoflurane 2-5% and oxygen 1-1.5 L/minute by inhalation anesthesia via nose cone, as needed, to maintain adequate anesthesia depth (assessed by toe pinch). Topical proparicaine anesthetic ophthalmic solution was applied to each eye prior to performing the first blood collection and allowed time to take effect. Collection of serum samples for TK analysis was as described for serum chemistry samples above, and samples were stored at ≤−70° C. until assayed. Animals were euthanized with EUTHASOL (Virbac Corp., Fort Worth, TX)≥86 mg/kg IP to effect following the final blood collection.
For assessment of serum T3 levels samples were sent to the Fairview University of Minnesota Medical Center East Bank Diagnostic Laboratory for analysis, a clinical laboratory certified by CLIA and CAP. Prior to sending serum samples to the analytical lab each sample was diluted 1:4 or 1:8 in normal (0.9%) saline. […] Samples were analyzed by a chemiluminescence assay for total triiodothyronine (T3).
Toxicokinetic parameters were estimated using Phoenix 64 WinNonlin pharmacokinetic software version 7.0. (Pharsight Corp., Mountain View, CA). A non-compartmental (NCA) approach consistent with the route of administration was used for parameter estimation. […] Whenever possible, mean concentrations were derived from three animals/gender/time point. Parameters were estimated using sampling times relative to the start of each dose administration. The raw data was converted to ng/ml of serum by dividing the […] values by 100 and then multiplying by the dilution factor for that sample, either 4 or 8. […]

[1] = Preliminary dose-finding studies, intravenous vs intratracheal 3.0 μg neutral pH T3; type: in vivo, rats
Method: FIG. 6. […] A single dose of T3 was administered intravenously (diamonds) or via intratracheal instillation (squares). Samples were analyzed for total T3 using a chemiluminescence assay.

Akt = Akt phosphorylation in RLE-6TN cells under hyperoxia; type: cell-based, rat; conditions: 24 hours hyperoxia, T3 added for 20 minutes; vs room air control and hyperoxia alone
Method: The cells were lysed in lysis buffer containing 20 mM Tris HCl (pH 7.5), 150 mM NaCl, 1 mM EDTA, 1 mM EGTA, 1% (vol/vol) Triton X-100 with protease inhibitors (1 mM PMSF, 2 μg/ml pepstatin, and 10 μg/ml each of aprotinin and leupeptin), and phosphatase inhibitors (2.5 mM sodium pyrophosphate, 1 mM β-glycerophosphate, and 1 mM Na3VO4). The lysate was drawn 10 times through a 25-gauge needle on ice for further lysis and then was centrifuged at 13,000 rpm for 15 minutes at 4° C. The supernatant was collected, and the protein concentrations were determined by use of the BCA protein assay kit (Sigma-Aldrich, St. Louis, MO). Immediately after this step, equal amounts of protein were subjected to Western blotting analysis.

[2] = tested on: intubated patients with ARDS; test: Phase I/II trial of instilled T3: safety and clinical course; type: in vivo, human
Text: Ten milliliters (mls) of reformulated, pH-adjusted commercial intravenous T3 solution (Par Pharmaceutical, Navi Mumbai, India; and XGen Pharmaceuticals DJB, Inc., Horseheads, NY) was instilled directly into the airspaces via a suction catheter in the endotracheal tube of intubated patients with ARDS. […] The study was approved by the Essentia IRB (Duluth, MN) and listed on ClinicalTrials.gov (NCT04115514).
Subsequent doses were given on days 4, 6, and 7. […] Despite Klebsiella aerogenes positive sputum culture, they were extubated on ventilator day 11. After discharge from the ICU, they had some confusion and delirium.

[3] = single oral dose of 50 micrograms; cited from earlier work
[4] = tested on: Sprague Dawley rats exposed to normobaric hyperoxia; test: Hyperoxia-induced lung injury (HALI) model with intraperitoneal T3
[5] = 3.0 μg T3 intratracheally vs 3.0 μg intravenously

## N[C@@H](Cc1cc(I)c(Oc2ccc(O)c(I)c2)c(I)c1)C(=O)O [T3, triiodothyronine]
In vivo; female
  Cl_F_obs: 30.10 mL/h
  HL_Lambda_z: 2.85 h
  Cmax_D: 6.12 ng/mL/µg
  Vz_F_obs: 123.60 mL
  AUC(0-inf): 89.7 ng·h/mL
In vivo; male
  Cl_F_obs: 74.29 mL/h
  HL_Lambda_z: 3.17 h
  Cmax_D: 2.44 ng/mL/µg
  Vz_F_obs: 339.44 mL
  AUC(0-inf): 36.3 ng·h/mL
[1]; [5]
  AUC after intratracheal relative to intravenous administration: ⅕
  T3 Cmax after intratracheal relative to intravenous administration: 1/17
[1]; single intravenous delivery or five days of intratracheal delivery of 3.0 μg neutral pH T3
  Acute effects on physiologic parameters (respiratory rate, O2 saturation, heart rate): no acute effects on physiologic parameters
Akt
  Phosphorylation of Akt at Ser473: augmented phosphorylation of Akt at Ser473
[2]; Patient 1, 60 days
  Follow-up status: normal complete pulmonary function tests (PFTs) and chest radiograph at 60 days
[2]; Patient 1, four 50 μg doses from day 3
  Ventilator day of extubation: 11
[2]; Patient 2
  Tolerability of instillation: tolerated each installation without apparent adverse side effects
[2]; Patient 2, 60-day clinic follow up
  Follow-up status: asymptomatic with normal lung exam, chest radiograph and PFTs
[2]; Patient 2, escalating doses from ventilator day 3
  Ventilator day of extubation: 20
[2]; Patient 2, previously deteriorating
  Oxygenation: stabilized over the four treatment days
[2]; Patients 1 and 2
  Adverse pulmonary or systemic events ascribed to T3 instillation: Neither patient had significant adverse pulmonary or systemic events
  Vasopressor dose required to maintain mean arterial pressure: decreased in temporal association with the T3 instillation
[3]
  Time of peak serum concentration: 2.5 h
  Time of physiologic effect of increased heart rate: five hours
[4]; 48-hour and 60-hour time points of hyperoxia, vs hyperoxia alone
  BALF protein concentration: attenuated significantly the hyperoxic increases in the BALF protein concentration
[4]; 95% oxygen 60 hours, intraperitoneal T3 supplementation (50 μg/kg bodyweight/24 hours)
  Serum total T3: augmented serum total T3
[4]; 95% oxygen 60 hours, vs hyperoxic lungs without T3
  MPO-positive cells in the lungs (immunostaining): fewer MPO-positive cells
[4]; 48 hours and 60 hours of 95% oxygen, vs hyperoxia alone
  BALF cell numbers: significantly reduced the BALF cell numbers
[4]; 60 hours hyperoxia, systemic T3 supplementation
  Lung morphology (histopathology): persistence of virtually normal lung morphology
[4]; 60 hours of hyperoxia
  Lung MPO activity: significantly reduced the hyperoxia-induced MPO activity
